Data from paper PMC12246642 (iScience, 2025).
Where a SMILES comes first, the peptide text is derived from it. [ ]: non-standard residue; d: D form. The star is where a group is joined. Met(O2) = CS(=O)(=O)CC[C@H](N)C(=O)O; Ala(cPr) = N[C@@H](CC1CC1)C(=O)O; Cbz = O=C(OCc1ccccc1)*

Columns and labels:
SARS-CoV-2 Mpro [1] = biological target: T1, SARS-CoV-2 Mpro (Severe acute respiratory syndrome coronavirus 2, UniProt P0DTD1); experiment: Covalent bond (adduct) formation kinetics by IR-MALDESI intact protein MS; format: binding; settings: for kobs (95 % CI) for adduct formation / kobs (95 % CI) Quenched, SPR: SPR buffer; for kobs (95 % CI) for adduct formation: Figure 2; for kobs (95 % CI) Quenched, SPR / kobs (95 % CI) Quenched, Citrate: quenched with 200 μM compound 9, 10 μM compound and Mpro, Figure S5; for kobs (95 % CI) Quenched, Citrate: citrate buffer, only estimated for lack of early timepoints
SARS-CoV-2 = experiment: Anti-viral potency: inhibition of in vitro replication of SARS-CoV-2 in A549 cells; format: cell-based; settings: for EC50: Severe acute respiratory syndrome coronavirus 2, A549 cells, 10-point titration from 50 μM, triplicate
SARS-CoV-2 Mpro [2] = biological target: T1, SARS-CoV-2 Mpro; format: binding; settings: 40 μM 15N-labeled deuterated Mpro, 20 or 40 μM compound, SPR buffer
[3] = format: physicochemical; settings: 500 μM, monitored for 10 h at 16-min intervals
SARS-CoV-2 Mpro [4] = biological target: T1, SARS-CoV-2 Mpro; format: binding; settings: 300 μM 13C-labeled compound, 100 μM Mpro, SPR buffer; for covalent adduct formation with Cys145 seen by 13C NMR: up to 3 h (compound 1) or 6 h (compound 5)
SARS-CoV-2 Mpro [5] = biological target: T1, SARS-CoV-2 Mpro; experiment: biochemical; format: biochemical; settings: for IC50 / Ki: Kinetics N = 2 (95% CI); for IC50: 4-parameter fit of the same data; for Ki: Morrison fit, 1 nM Mpro, 800 mM citrate buffer, 15 min preincubation
[6] = first determination, 4-parameter IC50 fit
[7] = second determination, 4-parameter IC50 fit

Compound	kobs (95 % CI) for adduct formation (SARS-CoV-2 Mpro [1]; Ratio Cmpd:Mpro 1:1)	kobs (95 % CI) for adduct formation (SARS-CoV-2 Mpro [1]; Ratio Cmpd:Mpro 2:1)	kobs (95 % CI) for adduct formation (SARS-CoV-2 Mpro [1]; Ratio Cmpd:Mpro 5:1)	kobs (95 % CI) Quenched, SPR (SARS-CoV-2 Mpro [1])	kobs (95 % CI) Quenched, Citrate (SARS-CoV-2 Mpro [1])	EC50 (SARS-CoV-2)	exchange regime of binding on the NMR timescale (SARS-CoV-2 Mpro [2])	epimerization at P1: αH resonance in D2O SPR buffer [3]	non-covalently bound form seen by 13C NMR (SARS-CoV-2 Mpro [4]; extended incubation)	covalent adduct formation with Cys145 seen by 13C NMR (SARS-CoV-2 Mpro [4])	Hill slope (SARS-CoV-2 Mpro [5]; 4-parameter IC50 refit)	Hill slope (SARS-CoV-2 Mpro [5]; [6])	Hill slope (SARS-CoV-2 Mpro [5]; [7])	decrease of cellular EC50 versus the Ki determined in citrate buffer (SARS-CoV-2; EC50 in A549 cells versus Ki)	IC50 (SARS-CoV-2 Mpro [5]; first determination)	Ki (SARS-CoV-2 Mpro [5]; first determination)	IC50 (SARS-CoV-2 Mpro [5]; second determination)	Ki (SARS-CoV-2 Mpro [5]; second determination)
COc1cccc2[nH]c(C(=O)N[C@@H](CC3CC3)C(=O)N[C@H](C=O)C[C@@H]3CCNC3=O)cc12 [Compound 1, N-((S)-3-cyclopropyl-1-oxo-1-(((S)-1-oxo-3-((S)-2-oxopyrrolidin-3-yl)propan-2-yl)amino)propan-2-yl)-4-methoxy-1H-indole-2-carboxamide]	0.11 (0.04919 to 0.2232)	0.34 (0.1598 to 0.8874)	2.0 (1.597 to 2.492)	0.13 Min -1	0.31 Min -1	6.2 µM	slow exchange regime	no change in intensity	stably bound to Mpro non-covalently	thiohemiacetal formation	greater than 1	3.1	2.0					
O=C[C@H](C[C@@H]1CCNC1=O)NC(=O)[C@H](CC1CC1)NC(=O)OCc1ccccc1 [Compound 2, benzyl ((S)-3-cyclopropyl-1-oxo-1-(((S)-1-oxo-3-((S)-2-oxopyrrolidin-3-yl)propan-2-yl)amino)propan-2-yl)carbamate]				0.49 Min -1	0.85 Min -1	3.3 µM					greater than 1	2.7	2.5					
COc1cccc2[nH]c(C(=O)N[C@@H](CC3CC3)C(=O)N[C@H](C=O)CCS(C)(=O)=O)cc12 [Compound 3, N-((S)-3-cyclopropyl-1-(((S)-4-(methylsulfonyl)-1-oxobutan-2-yl)amino)-1-oxopropan-2-yl)-4-methoxy-1H-indole-2-carboxamide]				0.18 Min -1	0.30 Min -1						1.5	1.5	1.5					
CS(=O)(=O)CC[C@@H](C=O)NC(=O)[C@H](CC1CC1)NC(=O)OCc1ccccc1 [Compound 4, benzyl ((S)-3-cyclopropyl-1-(((S)-4-(methylsulfonyl)-1-oxobutan-2-yl)amino)-1-oxopropan-2-yl)carbamate] (Cbz-[Ala(cPr)]-[Met(O2)]-aldehyde)				0.29 Min -1	0.35 Min -1	22 µM						1.0	1.0					
COc1cccc2[nH]c(C(=O)N[C@@H](CC3CC3)C(=O)N[C@H](C#N)C[C@@H]3CCNC3=O)cc12 [Compound 5, N-((S)-1-(((S)-1-cyano-2-((S)-2-oxopyrrolidin-3-yl)ethyl)amino)-3-cyclopropyl-1-oxopropan-2-yl)-4-methoxy-1H-indole-2-carboxamide]	0.33 (0.2393 to 0.4596)	0.40 (0.2513 to 0.6949)	1.6 (0.7658 to 3.045)	1.2 Min -1	0.47 Min -1	3.2 µM	fast exchange regime			no new peaks emerged to suggest thioimidate formation		1.0	1	760 fold				
N#C[C@H](C[C@@H]1CCNC1=O)NC(=O)[C@H](CC1CC1)NC(=O)OCc1ccccc1 [Compound 6, benzyl ((S)-1-(((S)-1-cyano-2-((S)-2-oxopyrrolidin-3-yl)ethyl)amino)-3-cyclopropyl-1-oxopropan-2-yl)carbamate]				0.08 Min -1	0.34 Min -1	13 µM						1.1	1.0					
COc1cccc2[nH]c(C(=O)N[C@@H](CC3CC3)C(=O)N[C@H](C#N)CCS(C)(=O)=O)cc12 [Compound 7, N-((S)-1-(((S)-1-cyano-3-(methylsulfonyl)propyl)amino)-3-cyclopropyl-1-oxopropan-2-yl)-4-methoxy-1H-indole-2-carboxamide]						> 50 µM						0.6						
CS(=O)(=O)CC[C@@H](C#N)NC(=O)[C@H](CC1CC1)NC(=O)OCc1ccccc1 [Compound 8, benzyl ((S)-1-(((S)-1-cyano-3-(methylsulfonyl)propyl)amino)-3-cyclopropyl-1-oxopropan-2-yl)carbamate]															> 12.5 µM	> 12.5 µM	> 12.5 µM	> 12.5 µM
